SMILES strings stand for the structures. Converted amounts (≈) assume the structure as drawn. Marks after values point to notes of the source that are not given here. Non-standard residues stand in square brackets, D forms with d. Residues, ends and D or L forms follow the SMILES beside them.

One series concerns BH1CC. The experiment in a line: microbe, parasite or virus in culture. Particulars: 18 h. Format: cell-based, Staphylococcus aureus. The method, then: (§1) Strains used in the study were isolates of methicillin-resistant Staphylococcus aureus (MRSA); USA300 LAC, BH1CC ([O’Neill et al., 2007]), methicillin-sensitive S. aureus (MSSA); SH1000 ([Horsburgh et al., 2002]) and BH48 ([O’Neill et al., 2007]); and Pseudomonas aeruginosa PAO1 (ATCC […]). Clinical isolates were obtained from a previous collection of isolates of infected wounds. Bacteria were grown aerobically at 37°C with shaking at 200 rpm in Brain Heart Infusion (BHI, Oxoid, Ireland). Selective media, Mannitol Salt Agar (SLS, Ireland) and MacConkey agar (SLS, Ireland), for re-isolation of bacterial strains from mixed species biofilms were used. Bolton Broth (Fannin, Ireland) supplemented with 50% bovine heparin plasma (TebuBio, UK), and 5% laked horse blood (Sigma-Aldrich, Ireland) was used to mimic in vivo conditions for static antibiofilm testing. For dynamic biofilm growth Simulated Wound Fluid (SWF) prepared as described previously with slight modification, 3% v/v fetal bovine serum in maximum recovery diluent (Merck, Ireland) was used ([Barbour et al., 2016]).
(§2) Minimum inhibitory concentration (MIC) was determined aerobically using the broth microdilution assay as recommended by the Clinical and Laboratory Standards Institute (CLSI) ([CLSI, 2018]). Briefly, 2-fold serial dilutions of the antimicrobial peptides of interest and conventional antibiotics were prepared in Mueller-Hinton broth (MHB) (Merck, Ireland) in a 96-well round bottom polypropylene plate (ThermoFisher, Ireland). Diluted bacterial suspensions in sterile PBS (Sigma, Ireland) were added to each well resulting in a final cell density of approximately 10^5 colony forming units (CFU)/mL. Microplates were incubated statically for 18 h at 37°C. In each assay, inoculated medium without antimicrobials and uninoculated medium served as growth and sterility controls, respectively. Conventional antibiotics, gentamicin (Merck, Ireland) and mupirocin (SLS, UK), were tested as comparator antimicrobials. The MIC value was defined as the lowest antimicrobial concentration showing no visible growth relative to positive (no antimicrobial agent) and negative controls (BHI alone). Experiments were conducted in triplicate, and independent replicates were performed three times to yield n = 3.

In the next series the test system is BH48. Briefly: microbe, parasite or virus in culture. The format is cell-based, Staphylococcus aureus. Particulars: 18 h. How it is done: as §1, §2
The next series relates to SH1000. Briefly: microbe, parasite or virus in culture. The note with it: SH1000, 18 h. Format: cell-based, Staphylococcus aureus. How it is done:
as §1, §2

A further series concerns USA300. The experiment in a line: microbe, parasite or virus in culture. The format is cell-based, Staphylococcus aureus. Particulars: USA300, 18 h. How it is done:
as §1, §2

The subject of the next series is PAO1. The experiment in a line: microbe, parasite or virus in culture. The format is cell-based, Pseudomonas aeruginosa. Particulars: PAO1, 18 h. How it is done:
as §1, §2

In series [1] the test system is PAO1 + SH1000 polymicrobial biofilm. The experiment in a line: Static polymicrobial biofilm, CFU enumeration. The format is cell-based, S. aureus + P. aeruginosa. The note with it: 6 h, 37°C. The method, then:
(§3) Biofilms were formed under static conditions using flat 96-well polystyrene plates as described previously with few modifications ([Nasreddine et al., 2018]). Briefly, overnight cultures in BHI were washed and diluted 1:200 in fresh Bolton Broth media supplemented with 50% bovine heparin plasma, and 5% laked horse blood. From this suspension, 100 μL was used to inoculate the microtiter plate wells prior to static incubation at 37°C for 24 h, 3 days and 5 days. The media in each well was changed daily during prolonged incubation periods (3 and 5 days). Following the initial incubation period and washing, 100 μL of D-Bac8c^2,5 Leu, was added to each test well at 37°C for 6 h at a concentration range of 64–256 μg/mL. After incubation with D-Bac8c^2,5 Leu, biofilms were washed twice with PBS and biofilm assessment was performed. For the polymicrobial biofilms, a bacterial solution ratio 1:1 of S. aureus and P. aeruginosa at 1 × 10^5 CFU/mL each was used to inoculate the wells. In each assay, inoculated medium without antimicrobials and uninoculated medium served as growth and sterility controls, respectively. Experiments were conducted in triplicate, and independent replicates were performed three times to yield n = 3.
(§4) After treatment, formed biofilms were washed twice with sterile PBS and then suspended in TrypLE solution (Gibco, Dublin, Ireland). A serial of 10-fold dilutions of the suspended biofilms were performed in 96-well flat bottom microplates. Then 10 μL of each dilution was plated in triplicate on MH agar using the drop method. For polymicrobial biofilms, dilutions were plated on Mannitol Salt Agar and MacConkey Agar. After overnight incubation at 37°C, CFU were counted and results were expressed as log10CFU/mL.

The test system of series [2] is PAO1 + USA300 polymicrobial biofilm. The experiment in a line: Static polymicrobial biofilm, CFU enumeration. The note with it: 24 h biofilm PAO1 + USA300, 256 μg/mL, 6 h, 37°C. Format: cell-based, S. aureus + P. aeruginosa. The method, then: as §3, §4
The next series relates to THP-1. The format is cell-based, human. Particulars: 24 h. The method, then: Sigma-Aldrich, Ireland). […] At 90% confluence, cells were centrifuged and diluted to a 1:5 ratio with complete RPMI. THP-1 cells were seeded in a 96 well plate at a density of 1 × 10^5 cells/mL with increasing concentrations of D-Bac8c^2,5 Leu. Cells were incubated for 24 h at 37°C with 5% CO2, 95% humidity. […] The absorbance was measured at 595 nm in a microplate spectrophotometer. Cell viability was calculated as a percentage of a control treated with PBS. Two technical replicates were performed each day on three independent days.

The subject of series [3] is tested strains (SH1000, BH48, USA300, BH1CC, PAO1). Briefly: In vitro serial passage, induction of resistance. The note with it: subculturing for 14 days at sub-MIC concentrations. Format: cell-based, S. aureus and P. aeruginosa. The method, then:
This assay was performed as outlined previously with some modifications ([Ge et al., 1999]; [Mohan et al., 2019]). Briefly, the in vitro serial passage study involved exposing bacteria diluted to 10^4 CFU/mL in cationic adjusted Muller Hinton Broth (Merck, Ireland) to D-Bac8c^2,5 Leu at one-half of the previously established bactericidal concentration. After 90 min of incubation at 37°C, 10 μL was plated in triplicate on MH agar and incubated again overnight. Post-incubation, surviving colonies were harvested, diluted in PBS and re-adjusted to 1 × 10^4 CFU/mL before repeated treatment with the sub-bactericidal concentration. This concentration was determined prior to the initiation of the study and after the 4th, 7th, 11th, and 14th passages. If the concentration after these passages was greater than the original determinate, then at passages […], the amount of peptide used during the bacterial challenge was increased. This was continued over a 14-day course. This assay was performed in independent duplicates.

For series [4], the system named is pro-inflammatory cytokines. Particulars: cited from earlier work.

For the compound `CC(C)C[C@@H](NC(=O)[C@H](N)CCCNC(=N)N)C(=O)N[C@H](Cc1c[nH]c2ccccc12)C(=O)N[C@@H](C(=O)N[C@H](CC(C)C)C(=O)N[C@H](Cc1c[nH]c2ccccc12)C(=O)N[C@H](CCCNC(=N)N)C(=O)N[C@H](CCCNC(=N)N)C(N)=O)C(C)C` [D-Bac8c^2,5 Leu] (H-[dR][dL][dW][dV][dL][dW][dR][dR]-NH2; N-terminus assumed), the MIC against BH1CC worked out at 8 µg/mL (≈ 6.76 µM); in the series with BH48, 8 µg/mL (≈ 6.76 µM); with SH1000, 8 µg/mL (≈ 6.76 µM); with USA300 it was 8 µg/mL (≈ 6.76 µM); with PAO1, 16 µg/mL (≈ 13.5 µM). In addition, the “Log change vs. untreated control” value in [1] (24 h biofilm PAO1 + SH1000, 64 μg/mL, left column of pair under S. aureus + P. aeruginosa) is recorded as −0.6 Log; in series [1] (24 h biofilm PAO1 + SH1000, 64 μg/mL, right column of pair under S. aureus + P. aeruginosa), −0.64 Log; in series [1] (24 h biofilm PAO1 + SH1000, 128 μg/mL, left column of pair), −1.65* Log; in [1] (24 h biofilm PAO1 + SH1000, 128 μg/mL, right column of pair), −1.61* Log; in series [1] (24 h biofilm PAO1 + SH1000, 256 μg/mL) it was −3.78*** Log; in [2] it was −2.44*** Log. Moreover, the “IC50 (50% cell viability), MTT” value in the series on THP-1 amounted to 331.7 µg/mL (≈ 280 µM). Besides, the “development of resistance (change in MIC)” value in series [3] is “not accompanied by increased resistance”. Moreover, in series [4], the “release of pro-inflammatory cytokines in human blood” value is “did not induce”.
